The species named for one experiment is Rattus norvegicus. Briefly: Inhibitory concentration was evaluated against the vasoconstriction induced by NPY in the rat femoral artery ring. In kind it is functional.
Experiment [1] can be described thus: The receptor binding activity was evaluated as the displacement of specifically bound [3H]-NPY from male Sprague-Dawley rat brain membrane homogenates. It is filed as tissue-based.
A short description of experiment [2]: Percent maximum displacement of the [3H]NPY by the compound in the rat brain membrane was evaluated. In kind it is cell membranes.
A short description of experiment [3]: Inhibition constant to displace [3H]-NPY from rat brain membrane after treatment with 500 evaluated. It is filed as tissue-based.
The nature of experiment [4]: The receptor binding activity as the displacement of specifically bound [3H]-NPY from male Sprague-Dawley rat brain membrane homogenates. In kind it is tissue-based.

This note sets out measurements from ChEMBL document CHEMBL1126370, “Neuropeptide Y (NPY) functional group mimetics: design, synthesis, and characterization as NPY receptor antagonists” (Bioorg Med Chem Lett, 1992).

As usually defined, the IC50 is the point on the concentration scale where inhibition reaches its midpoint. Read a high IC50 as a need for much substance. What is called Ki is a dissociation constant, usually derived from enzyme kinetics or from competition with a known ligand. Low values mean a stronger hold on the target, high ones a looser hold on the target.

Consider `N/C(=N\CCNC(=O)C(N)Cc1ccc(OCc2c(Cl)cccc2Cl)cc1)NCCSSCCN/C(N)=N/CCNC(=O)C(N)Cc1ccc(OCc2c(Cl)cccc2Cl)cc1` (stereo not given), for which the half-maximal inhibitory concentration (IC50) in the experiment filed under Rattus norvegicus was 0.414 µM; in experiment [1] it was 18.5 µM. The Max displacement in experiment [2] turned out to be 63%.
As for `N/C(=N\CCNC(=O)C(N)Cc1ccc(OCc2c(Cl)cccc2Cl)cc1)NCCCCCCN/C(N)=N/CCNC(=O)C(N)Cc1ccc(OCc2c(Cl)cccc2Cl)cc1` (stereo not given), the results for the IC50 (in the experiment listed under Rattus norvegicus; in experiment [1]) were 2.86 µM and 45.4 µM, respectively. Besides, in experiment [3], the Ki came to 35.5 µM. The same molecule registered a Max displacement in experiment [2] of 100%.
On to `COc1ccccc1CNCCCCCCNCCSSCCNCCCCCCNCc1ccccc1OC` [BENEXTRAMINE], for which the results for the half-inhibitory concentration (IC50) (in experiment [4]; in the experiment listed under Rattus norvegicus) were 56 µM and 0.0431 µM, respectively. In addition, in experiment [2], the Max displacement amounted to 61%.
